Entries after “also recorded” stand apart in the source; their conditions may differ.
Columns and labels:
L929 cells [1] = experiment: TGF-induced collagen synthesis in L929 cells, 96-well plate format (SIRCOL); type: cell-based; conditions: 500 µM
Description: Five thousand L929 cells were plated in complete DMEN and incubated until confluency for 3 days. Medium was removed and complete DMEM containg Prolin (20 µg/ml) and ascorbic acid (10 µM) was added. […] Cells were further incubated for 72 hrs. Supernatant was removed, 0.5% gluteraldehyde was added for 30 min at RT, removed, washed 3X with ddwater, 0.5 M acetic acid was added for 30 min at RT, removed, washed with water, air dried and 100 µl SIRCOL dye was added for 5 h at RT. Dye was removed, plate was washed extensively under running water, air dried and 200 µl of 0.5 M NaOH was added, plates were shaken at RT for 1 h, and OD was determined at 600 nm.

L929 cells [2] = experiment: TGF-induced soluble fibronectin synthesis in L929 cells (ELISA); type: cell-based; conditions: 500 µM, in the absence and presence of TGF-β-induction
Excerpt: Fibronectin is another important component of fibrotic lungs as it is induced by TGF-β and functions both as a structural component of extra cellular matrix as well as well as a ligand for integrin receptors. Just like soluble collagen, binding of fibronectin to integrin receptors induces the proliferation of fibroblast and epithelial cells of the lungs.

[3] = MAD study, safety and tolerability (adverse events)
Description: All participants in Part 1 and Part 2 will be monitored for safety (including assessment of chemistry, haematology and urinalysis parameters, electrocardiograms [ECGs], vital signs and adverse events [AEs]) and samples will be collected for assessment of PK at predefined time points pre and post-dose as delineated in the Schedule of Events.
Safety and tolerability will be assessed throughout Part 1, Part 2 and Part 3 of the study by monitoring AEs, physical examination, vital signs, 12-lead ECGs, clinical laboratory values (haematology panel, multiphasic chemistry panel and urinalysis), and review of concomitant treatments/medication use.

[4] = human, in vivo, 48 h
Description: Following screening, eligible healthy volunteer subjects were admitted to a single clinical study site and were randomized to 1 of 2 treatment sequences. […] In each period, a standardized breakfast was provided to subjects prior to administration of study drug (to compare the PK profiles in the clinically relevant fed state) and plasma samples were collected over a 48-hour period after dosing for evaluation of PK. Dosing between the 2 periods was separated by a minimum of 7 days. Subjects completed the study upon completion of the 48-hour post-dose assessments following dosing period 2.
All capsules were identical in size, shape, and external color.

L929 cells [5] = experiment: Survival of L929 cells (MTT); type: cell-based; conditions: 500 µM, 72 hrs
Description: Five thousand L929 cells were plated in completed DMEN and incubated until confluency for 3 days. Medium was removed and complete DMEM containg Prolin (20 µg/ml) and ascorbic acid (10 uM) was added. […] 100 µL of medium was removed, 20 µL MTT solution was added for 4 hrs, then 100 µl of DMSO was added, and absorbance of developed dark pink color was determined at […].

L929 cells [6] = experiment: TGF-induced soluble collagen synthesis in L929 cells (ELISA); type: cell-based; conditions: 500 µM
Description: Five thousand L929 cells were plated in complete DMEN and incubated until confluency for 3 days. Medium was removed and complete DMEM containing Prolin (20 µg/ml) and ascorbic acid (10 µM) was added. […] Cells were further incubated for 72 hrs. 200 µl supernatant of 96-well SIRCOL plate was placed onto ELISA plate and incubated O/N. Next day, supernatant was removed and 100 ul of 1%BSA in PBST was added and incubated for 2 h at RT, BSA was removed, plate was washed 3x with 200 µl of PBST, and anti-collagen type I a.b was added at 1:2000 dilution (prepared in %1 BSA in PBST), incubated at RT for 1 h, primary a.b was removed, plate was washed 3x with 200 µl PBST, and secondary anti-goat HRP was added at 1:2000 dilution, incubate at RT for 1 h, removed, plate was washed 3x with 200 µl PBST and 100 µl of TMB solution was added for color development for 15 min, then 100 µl of 2 N H2SO4 was added to stop the reaction and O.D of developed yellow color was determined at 450 nm.

[7] = Food Effect Study Part 2 (Cohort 5), single 500 mg dose fed vs fasted; type: in vivo
Description: The comparison will be based on Day 1, Day 2 and Day 3 PK plasma samples after the first dose of study drug on Day 1 under fast and fed conditions of Part 2.
Subjects will be admitted to the CRU on Day -1 and will fast overnight for at least 10 h.
Comparison of the PK parameters in the fed and fasted states will be performed, and analysis of PK by gender may be performed if the data allow.

[8] = human, in vivo
Description: All Part 1 cohorts will be dosed every 12 hours with food for 5 days.
During the treatment period (Day 1 through Day 5), participants will be administered their assigned study medication BID, every 12 h ± 0.25 h (with approximately 240 mL of non-carbonated water), 30 minutes after the start of consumption of their standardised breakfast or dinner (12 h apart). A standardised lunch will be served ≥ 4 h post breakfast and ≥ 4 h prior to dinner. An evening snack will be served ≥ 3 h following evening study medication administration. No additional fluids will be allowed during the 1 h pre- and post-doses. On Day 6, subjects will replicate mealtimes as scheduled on Day 1-5.
In Part 1, blood samples (4 mL each) for PK will be collected for Cohorts 1, 2, 3, 4, and 6 at specified times (hours) at each as follows: • Day 1 and Day 5: 0 (pre-dose), 0.5, 1, 1.5, 2, 2.5, 3, 3.5, 4, 6, 8, 12 (pre-dose), 13, 14, 15, 16, 18 h • Day 2, Day 3 and Day 4: 0 (pre-morning-dose) and 12 h (pre-evening-dose) • Day 6: 12, 18, 24 and 36 h post-last dose • Day 7: 48 h (post-last dose)
Pharmacokinetics for Day 1 to 3 in Part 2 (fed state) will be compared to PK for Day 1 to Day 3 in Part 2 (fasted state). Plasma PK parameters (non-compartmental or compartmental analysis as appropriate) will include, but are not limited to: • Following single dose: Tmax, tlag, Cmax, AUC0-4, AUC0-last, t½, AUC0-inf, lambda z, %AUCext, CL/F, Vz/F, Cmax/D, AUC0-last/D, AUC0-inf/D and MRT (D is dose) • After repeated doses: Ctrough, Ctrough/D • Following repeated doses on last day: Tmax, Cmax, Cavg, tlag, t½, AUC0-4, AUC0-last, AUC0-inf, lambda z, %AUCext, CLss/F, Vzss/F, MRT, PTF, Rac(AUC), Rac(Cmax), Cmax/D, AUClast/D, AUC0-inf/D and Rac (accumulation ratio)
All cohorts (n=6 each) were dosed every 12 hours with food for 5 days at either 100, 250, 500, or 750 mg BID. […] Following processing, the samples were analyzed by HPLC on a Phenomenex Luna PFP(2), 3 µm, 50 x 2.0 mm column, and the eluates were monitored by an API4000 MS/MS detector in positive MRM mode. The data were acquired and processed by the data acquisition system Analyst® (Sciex).

L929 cells [9] = experiment: TGF-induced collagen synthesis in L929 cells, 6-wells (SIRCOL); type: cell-based; conditions: 500 µM
Description: 100,000 L929 cells were plated in complete DMEN and incubated until confluency for 3 days. Medium was removed and complete DMEM containg Prolin (20 µg/ml) and ascorbic acid (10 µM) was added. […] Cells were further incubated for 72 hrs. Supernatant was removed, cells were washed with cold PBS, 1 ml SIRCOL reagent was added onto the cells and cells were scraped off, samples were shaken for 5 h.at RT, centrifuged at 10.000 rpm for 5 min, supernatant was removed, pellet was dissolved in 0.5 M acetic acid to remove unbound dye, and re-centrifuged at 10.000 rpm for 5 min, supernatant was removed and final pelet was dissolved in 1 ml 0.5 M NaOH, shaken at RT for 5 h, 100 µl of resulted solution was placed in 96-well and O.D was determined at 600.

NASH mice = experiment: NASH mouse model (streptozotocin and high fat diet), liver histology; type: in vivo
Excerpt: Non-alcoholic steatohepatitis (NASH) is characterized by lobular inflammation, hepatocyte ballooning and degeneration progressing to liver fibrosis. […] In addition, nine non-NASH mice were fed with a normal diet and monitored.

[10] = test system: mouse tail model of lymphedema; experiment: Mouse tail model of lymphedema; type: in vivo; conditions: 400 mg/kg/day oral gavage once daily, by 5 weeks
[11] = male, Sprague Dawley, rat, in vivo, 28 days
Description: The protocol was amended to add additional TK male animals in Group 6 for Day 1 collection of TK samples at 875 mg/kg.
Blood samples were collected from 3 subsets of 3 animals/sex on Day 1 and Day 28 at predose, 0.25, 0.5, 1, 2, 4, 8 and 24 hours (hr) post-dose for groups 2 to 6 and from one subset of 3 animals/sex at 0.25 hr post-dose for the vehicle group (group 1). […] Non-compartmental analysis (NCA) of plasma concentration data was conducted using Phoenix® WinNonlin®, version 8.0.

[12] = 200 mg SD-559 (pirfenidone) BID, Huang et al.; in ng/mL; cited from earlier work

SMILES: [2H]C([2H])([2H])c1ccc(=O)n(-c2ccccc2)c1 [LYT-100, deupirfenidone]
- total collagen level in the absence of TGF-β induction (L929 cells [1]): signficantly inhibited or reduced
- TGF-β-induced total collagen levels (L929 cells [1]; TGF-β 5 ng/ml, 72 hrs): significanly inhibited or reduced
- soluble fibronectin levels (L929 cells [2]): signficantly reduced
- abdominal discomfort, AE across all cohorts [3]: 6.7%
- abdominal distension, AE across all cohorts [3]: 10%
- headache, AE across all cohorts [3]: 23.3%
- nausea, AE across all cohorts [3]: 10%
- Abdominal Distension, incidence of TEAE ([3]; 100 mg BID, N=6): 0 n (%)
- Abdominal discomfort, incidence of TEAE ([3]; 100 mg BID, N=6): 0 n (%)
- Back pain, incidence of TEAE ([3]; 100 mg BID, N=6): 1 (16.7%) n (%)
- Dysmenorrhoea, incidence of TEAE ([3]; 100 mg BID, N=6): 0 n (%)
- Headache, incidence of TEAE ([3]; 100 mg BID, N=6): 1 (16.7%) n (%)
- Nausea, incidence of TEAE ([3]; 100 mg BID, N=6): 0 n (%)
- Peripheral swelling, incidence of TEAE ([3]; 100 mg BID, N=6): 0 n (%)
- Presyncope, incidence of TEAE ([3]; 100 mg BID, N=6): 0 n (%)
- tolerability ([3]; 100 mg up through 1000 mg BID over 5 days): well-tolerated
- Abdominal Distension, incidence of TEAE ([3]; 250 mg BID, N=6): 3 (50.0%) n (%)
- Abdominal discomfort, incidence of TEAE ([3]; 250 mg BID, N=6): 0 n (%)
- Back pain, incidence of TEAE ([3]; 250 mg BID, N=6): 0 n (%)
- Dysmenorrhoea, incidence of TEAE ([3]; 250 mg BID, N=6): 2 (33.3%) n (%)
- Headache, incidence of TEAE ([3]; 250 mg BID, N=6): 2 (33.3%) n (%)
- Nausea, incidence of TEAE ([3]; 250 mg BID, N=6): 2 (33.3%) n (%)
- Peripheral swelling, incidence of TEAE ([3]; 250 mg BID, N=6): 1 (16.7%) n (%)
- Presyncope, incidence of TEAE ([3]; 250 mg BID, N=6): 1 (16.7%) n (%)
- Abdominal Distension, incidence of TEAE ([3]; 500 mg BID, N=6): 0 n (%)
- Abdominal discomfort, incidence of TEAE ([3]; 500 mg BID, N=6): 0 n (%)
- Back pain, incidence of TEAE ([3]; 500 mg BID, N=6): 2 (33.3%) n (%)
- Dysmenorrhoea, incidence of TEAE ([3]; 500 mg BID, N=6): 0 n (%)
- Headache, incidence of TEAE ([3]; 500 mg BID, N=6): 2 (33.3%) n (%)
- Nausea, incidence of TEAE ([3]; 500 mg BID, N=6): 1 (16.7%) n (%)
- Peripheral swelling, incidence of TEAE ([3]; 500 mg BID, N=6): 0 n (%)
- Presyncope, incidence of TEAE ([3]; 500 mg BID, N=6): 0 n (%)
- Abdominal Distension, incidence of TEAE ([3]; 750 mg BID, N=6): 0 n (%)
- Abdominal discomfort, incidence of TEAE ([3]; 750 mg BID, N=6): 2 (33.3%) n (%)
- Back pain, incidence of TEAE ([3]; 750 mg BID, N=6): 0 n (%)
- Dysmenorrhoea, incidence of TEAE ([3]; 750 mg BID, N=6): 0 n (%)
- Headache, incidence of TEAE ([3]; 750 mg BID, N=6): 2 (33.3%) n (%)
- Nausea, incidence of TEAE ([3]; 750 mg BID, N=6): 1 (16.7%) n (%)
- Peripheral swelling, incidence of TEAE ([3]; 750 mg BID, N=6): 0 n (%)
- Presyncope, incidence of TEAE ([3]; 750 mg BID, N=6): 0 n (%)
- Abdominal Distension, incidence of TEAE ([3]; 1000 mg BID, N=6): 1 (16.7%) n (%)
- Abdominal discomfort, incidence of TEAE ([3]; 1000 mg BID, N=6): 0 n (%)
- Back pain, incidence of TEAE ([3]; 1000 mg BID, N=6): 0 n (%)
- Dysmenorrhoea, incidence of TEAE ([3]; 1000 mg BID, N=6): 0 n (%)
- Headache, incidence of TEAE ([3]; 1000 mg BID, N=6): 2 (33.3%) n (%)
- Nausea, incidence of TEAE ([3]; 1000 mg BID, N=6): 0 n (%)
- Peripheral swelling, incidence of TEAE ([3]; 1000 mg BID, N=6): 1 (16.7%) n (%)
- Presyncope, incidence of TEAE ([3]; 1000 mg BID, N=6): 1 (16.7%) n (%)
- participants with TEAEs considered at least possibly treatment-related ([3]; 15 of 30 participants treated with LYT-100): 50.0%
- dose-limiting toxicities ([3]; 100 to 1000 mg BID, 5 days): No dose-limiting toxicities were observed
- maximum tolerated dose ([3]; 100 to 1000 mg BID, 5 days): No maximum tolerated dose was reached; also recorded: no maximally tolerated dose was reached
- severity of adverse events at all doses ([3]; MAD study): mild and transient
- Abdominal Distension, incidence of TEAE ([3]; Overall LYT-100, N=30): 4 (13.3%) n (%)
- Abdominal discomfort, incidence of TEAE ([3]; Overall LYT-100, N=30): 2 (6.7%) n (%)
- Back pain, incidence of TEAE ([3]; Overall LYT-100, N=30): 3 (10.0%) n (%)
- Dysmenorrhoea, incidence of TEAE ([3]; Overall LYT-100, N=30): 2 (6.7%) n (%)
- Headache, incidence of TEAE ([3]; Overall LYT-100, N=30): 9 (30.0%) n (%)
- Nausea, incidence of TEAE ([3]; Overall LYT-100, N=30): 4 (13.3%) n (%)
- Peripheral swelling, incidence of TEAE ([3]; Overall LYT-100, N=30): 2 (6.7%) n (%)
- Presyncope, incidence of TEAE ([3]; Overall LYT-100, N=30): 2 (6.7%) n (%)
- tolerability of single doses [4]: well tolerated
- survival of L929 cells (L929 cells [5]): does not affect survival
- soluble collagen levels in the absence of TGF-β-induction (L929 cells [6]): signficantly reduced
- TGF-β-induced soluble collagen levels (L929 cells [6]; TGF-β 5 ng/ml, 72 hrs): significantly inhibits
- AUC, % Change Fed vs Fasted ([7]; LYT-100 @500 mg single dose): -19%
- Cmax, % Change Fed vs Fasted ([7]; LYT-100 @500 mg single dose): -23%
- Tmax, % Change Fed vs Fasted ([7]; LYT-100 @500 mg single dose): +25%
- tolerability with or without food ([7]; single dose of 500 mg): no evidence of any tolerability concerns
- dose dependence of AUC96-108 [8]: linear dose proportionality
- collagen synthesis in the absence of added TGF-β (L929 cells [9]): significantly inhibits
- TGF-induced collagen synthesis (L929 cells [9]; TGF-β 5 ng/ml, 72 hrs): inhibits
- Fibrosis Area (%) (NASH mice; 30 mg/kg twice daily oral, 6-9 weeks of age, n=8, mean ± SD, p<0.01 vs Vehicle): 0.64 ± 0.31 %
- fibrosis area compared to the vehicle group (NASH mice; Sirius-red stained liver sections): significant reduction
- number of animals with Steatosis score 0 (NASH mice; score 0 = <5%, n=8): 4
- number of animals with Steatosis score 1 (NASH mice; score 1 = 5-33%, n=8): 3
- number of animals with Lobular Inflammation score 1 (NASH mice; score 1 = <2 foci/200x, n=8): 5
- number of animals with Lobular Inflammation score 2 (NASH mice; score 2 = 2-4 foci/200x, n=8): 3
- number of animals with Steatosis score 2 (NASH mice; score 2 = >33%-66%, n=8): 1
- number of animals with Hepatocyte ballooning score 2 (NASH mice; score 2 = Many cells/prominent ballooning, n=8): 8
- swelling (tail volume) as compared to carboxymethylcellulose control [10]: significantly reduced swelling

SMILES: O=C(O)c1ccc(=O)n(-c2ccccc2)c1 [LYT-105, 5-carboxy-pirfenidone]
- exposure in rats relative to humans [11]: ~7 fold
- change in Cmax, AUC, fed vs fasted ([7]; 5-carboxypirfenidone after LYT-100 500 mg): < 5%
- observed Cmax [12]: 1476
- average ratio of metabolite to the parent (M/P) by AUC [8]: 0.45
- dose dependence of AUC96-108 [8]: linear dose proportionality

— patent publication US20230255946A1 (Pure Tech LYT 100, Inc., priority 2020, published 2023)
